Data set [1] is described as follows: Evaluation of spectral characteristics (UV visible absorption spectrum in cyclohexanone). The note with it: for absorbance ratio: absorbance at largest absorption wavelength (500 to 650 nm) / absorbance at smallest absorption wavelength (400 to 500 nm), in cyclohexanone, room temperature; for λmax [nm]: absorption peak wavelength, dissolved in cyclohexanone, absorbance regulated to 2.0, room temperature. The class given is physicochemical. Here is the method: The colorant compounds represented by the formula (10) was dissolved in cyclohexanone and regulated so as to show an absorbance of 2.0. […] The absorption peak wavelength (λmax [nm]) was determined from the spectrum obtained by the observation. The spectral characteristics of the colorant compound were evaluated by the absorbance ratio of the largest absorption wavelength of the spectrum in the range of 500 to 650 nm to the smallest absorption wavelength of the spectrum in the range of 400 to 500 nm (the absorbance at the largest absorption wavelength/the absorbance at the smallest absorption wavelength).
While the lightness can be evaluated by means of the Y value of the XYZ standard […] system established by CIE (Commission Internationale de l'Eclairage), the lightness was evaluated by means of the absorbance ratio in this example because the Y value can vary remarkably when the hue is shifted slightly.

Data set [2] can be described thus: Evaluation of solubility of colorant compounds to cyclohexanone. The data set is classed as physicochemical. The following applies: rank A/B/C.

Molecules are shown by their SMILES.

Turning to `CCCCC(CC)CN(CC(CC)CCCC)S(=O)(=O)c1cccc(CN(CC)c2ccc(C(=C3C=CC(=[N+](CC)Cc4cccc(S(=O)(=O)N(CC(CC)CCCC)CC(CC)CCCC)c4)C=C3)c3ccccc3S(=O)(=O)[O-])cc2)c1` (centres unmarked) [compound (10)], in data set [1], the absorbance ratio was 433 and the “λmax [nm]” value worked out at 619 nm. For the same compound, the solubility entry in data set [2] is “A (The solubility to cyclohexanone is not lower than 10%.)”.

Take `CCCCNc1ccc(NCCCC)c2c1C(=O)c1ccccc1C2=O` [compound (28), C. I. Solvent Blue 35, reference compound]: in data set [1], the absorbance ratio is reported as 77 and the “λmax [nm]” value amounted to 620 nm.

The values are drawn from US7834213B2, “Colorant compound and method of manufacturing the same as well as blue resist composition for use in color filter containing the same” (Canon Kabushiki Kaisha, priority 2005, dated 2010).
